Assay results published in patent US11358931B2, “Selective androgen receptor modulators (SARMs) and uses thereof” (priority 2007, dated 2022).
Read-outs that look alike come from different tables or passages of the source.

Columns and labels:
[1] = Pharmacokinetics in orchidectomized male rats (plasma, Day 14); type: in vivo; conditions: rat, ORX male rats; for AUC: male, po; for Cmax / Tmax: PO
Source text: In this assay, two-month old rats were acclimated in a vivarium for one week. After this acclimation period, rats were surgically orchidectomized under isoflurane anesthesia and left untreated for 14 days. After 14 days, animals were sorted into groups such that no statistically significant differences in mean body weights were observed. Rats began receiving treatment 14 days after the day of surgery. Sham-operated and orchidectomized rats, treated with vehicle, served as controls. The different test groups were treated with various doses of Compound 102 (0.03 to 100 mg/kg/day per os (by mouth)). Dosages included 0.03, 0.1, 0.3, 1, 3, 10, 30 and 100 mg/kg/day. Ostarine, a non-steroidal androgenic drug (Evans et al., J Clin Oncology 25: 9119 (2007)) was dosed at dosages similar to other test groups as a comparison. After the 14th dose, venous blood was collected at 0, 1, 2, 4 and 6 hours after dosing. The blood samples were collected in EDTA-containing tubes (Becton Dickinson, Franklin Lakes, N.J.). Approximately 24 hours after the last dose, animals were euthanized and seminal vesicle weights, ventral prostate weights, levator ani weights, preputial gland weights and blood samples were collected on necropsy.
The determination of plasma concentration was done by an LC-MS/MS method. The standard solution of each drug was spiked in blank rat plasma, calibration standards were constructed from 0.0001 μg/mL to 10 μg/mL; and 50 μL of each calibration standard was extracted with 250 μL of acetonitrile containing 10 ng/mL of internal standard in a 96-well plate. Also, 50 μL of plasma sample was extracted with 250 μL of acetonitrile containing internal standard in a 96-well plate.
Peak pharmacokinetic (PK) parameters were calculated and rounded to three decimal places.

[2] = Oral bioavailability in animal species; conditions: multiple animal species, including monkeys
[3] = In vitro genotoxicity assays
Source text: Compounds disclosed herein can be evaluated for efficacy and toxicity using known methods. For example, the toxicology of a particular compound, or of a subset of the compounds, sharing certain chemical moieties, may be established by determining in vitro toxicity towards a cell line, such as a bacterial or mammalian, including human, cell line. The results of such studies are often predictive of toxicity in animals, such as mammals, or more specifically, humans. Exemplary assays include bacterial reverse mutation assays (e.g., see Ames et al., Mutation Research 31: 347-364 (1975); Green et al., Mutation Research 38: 3-32 (1976); and Maron et al., Mutation Research 113: 173-215 (1983), cytological methods for detecting chemical mutagens (Evans, Chemical Mutagens, Principles and Methods for their Detection, Vol. 4 (Plenum Press, New York, N.Y. (1976))), chromosomal aberration assays (Galloway et al., Mutation Research 312(3): 241-261 (1994)), genotoxicity assays (Federal Register 61: 18198-18202 (1996) and Federal Register 62: 16026-16030 (1997)) and cytogenetic assays (Preston et al., Mutation Research 87: 143-188 (1981)).

N#Cc1ccc(N2CCC[C@@H]2[C@@H](O)C(F)(F)F)cc1C(F)(F)F [Compound 102, R,R-4-(2-(1-Hydroxyl-2,2,2-trifluoroethyl)-pyrrolidinyl)-2-trifluoromethyl-benzonitrile]
AUC ([1]; 0.01 mg/kg, Day 14, 0.01 mg/kg, 0 hr conc. substituted for 24 hr, read-out: AUC24): 15 ng·h/mL
AUC ([1]; 0.01 mg/kg, Day 14, 0.01 mg/kg, read-out: AUC6): 4 ng·h/mL
AUC ([1]; 0.03 mg/kg, Day 14, 0.03 mg/kg, 0 hr conc. substituted for 24 hr, read-out: AUC24): 5 ng·h/mL
AUC ([1]; 0.03 mg/kg, Day 14, 0.03 mg/kg, read-out: AUC6): 2 ng·h/mL
AUC ([1]; 0.3 mg/kg, Day 14, 0.3 mg/kg, 0 hr conc. substituted for 24 hr, read-out: AUC24): 42 ng·h/mL
AUC ([1]; 0.3 mg/kg, Day 14, 0.3 mg/kg, read-out: AUC6): 18 ng·h/mL
AUC ([1]; 1 mg/kg, Day 14, 1 mg/kg, 0 hr conc. substituted for 24 hr, read-out: AUC24): 123 ng·h/mL
AUC ([1]; 1 mg/kg, Day 14, 1 mg/kg, read-out: AUC6): 63 ng·h/mL
AUC ([1]; 3 mg/kg, Day 14, 3 mg/kg, 0 hr conc. substituted for 24 hr, read-out: AUC24): 234 ng·h/mL
AUC ([1]; 3 mg/kg, Day 14, 3 mg/kg, read-out: AUC6): 113 ng·h/mL
AUC ([1]; 10 mg/kg, Day 14, 10 mg/kg, 0 hr conc. substituted for 24 hr, read-out: AUC24): 764 ng·h/mL
AUC ([1]; 10 mg/kg, Day 14, 10 mg/kg, read-out: AUC6): 370 ng·h/mL
AUC ([1]; 30 mg/kg, Day 14, 30 mg/kg, 0 hr conc. substituted for 24 hr, read-out: AUC24): 1880 ng·h/mL
AUC ([1]; 30 mg/kg, Day 14, 30 mg/kg, read-out: AUC6): 645 ng·h/mL
AUC ([1]; 100 mg/kg, Day 14, 100 mg/kg, 0 hr conc. substituted for 24 hr, read-out: AUC24): 4050 ng·h/mL
AUC ([1]; 100 mg/kg, Day 14, 100 mg/kg, read-out: AUC6): 998 ng·h/mL
Cmax ([1]; Day 14, 0.01 mg/kg): 2 ng/mL
Tmax ([1]; Day 14, 0.01 mg/kg): 2.8 h
Cmax ([1]; Day 14, 0.03 mg/kg): 1 ng/mL
Tmax ([1]; Day 14, 0.03 mg/kg): 2 h
Cmax ([1]; Day 14, 0.3 mg/kg): 12 ng/mL
Tmax ([1]; Day 14, 0.3 mg/kg): 1.3 h
Cmax ([1]; Day 14, 1 mg/kg): 18 ng/mL
Tmax ([1]; Day 14, 1 mg/kg): 2.5 h
Cmax ([1]; Day 14, 3 mg/kg): 36 ng/mL
Tmax ([1]; Day 14, 3 mg/kg): 1.3 h
Cmax ([1]; Day 14, 10 mg/kg): 111 ng/mL
Tmax ([1]; Day 14, 10 mg/kg): 1.8 h
Cmax ([1]; Day 14, 30 mg/kg): 205 ng/mL
Tmax ([1]; Day 14, 30 mg/kg): 4.3 h
Cmax ([1]; Day 14, 100 mg/kg): 321 ng/mL
Tmax ([1]; Day 14, 100 mg/kg): 3.5 h
oral bioavailability [2]: orally bioavailable
genotoxicity [3]: negative
